According to PubChem BioAssay AID2060901 (Molecular Pharmacology Branch, DTP, NCI, 2025):
Each block holds one molecule with its values, some of them ahead of it.

System: 422866-222-R5-J1-PDC complex spheroids viability
Assay: Anticancer human tumor 422866-222-R5-J1-PDC patient-derived pancreatic adenocarcinoma cell line growth inhibition [RAS]
Conditions: for IC50: curve of first compound; for viability, T/C: stronger effect = lower value
Summary of the method: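 Agents were tested in combination matrices in half-log decrements from a top concentration at or near clinical Cmax (10 microM if undetermined). Targets were multi-cell spheroids of tumour lines plus HUVEC and MSC stromal cells.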

[1] = second compound 0.000949 µM, first compound 0.0316 µM
[2] = second compound 0.000949 µM, first compound 0.1 µM
[3] = second compound 0.000949 µM, first compound 0.316 µM
[4] = second compound 0.000949 µM, first compound 1 µM
[5] = second compound 0.000949 µM, first compound 3.16 µM
[6] = second compound 0.000949 µM, first compound 10 µM
[7] = second compound 0.003 µM, first compound 0.0316 µM
[8] = second compound 0.003 µM, first compound 0.1 µM
[9] = second compound 0.003 µM, first compound 0.316 µM
[10] = second compound 0.003 µM, first compound 1 µM
[11] = second compound 0.003 µM, first compound 3.16 µM
[12] = second compound 0.003 µM, first compound 10 µM
[13] = second compound 0.00949 µM, first compound 0.0316 µM
[14] = second compound 0.00949 µM, first compound 0.1 µM
[15] = second compound 0.00949 µM, first compound 0.316 µM
[16] = second compound 0.00949 µM, first compound 1 µM
[17] = second compound 0.00949 µM, first compound 3.16 µM
[18] = second compound 0.00949 µM, first compound 10 µM
[19] = second compound 0.03 µM, first compound 0.0316 µM
[20] = second compound 0.03 µM, first compound 0.1 µM
[21] = second compound 0.03 µM, first compound 0.316 µM
[22] = second compound 0.03 µM, first compound 1 µM
[23] = second compound 0.03 µM, first compound 3.16 µM
[24] = second compound 0.03 µM, first compound 10 µM
[25] = second compound 0.0949 µM, first compound 0.0316 µM
[26] = second compound 0.0949 µM, first compound 0.1 µM
[27] = second compound 0.0949 µM, first compound 0.316 µM
[28] = second compound 0.0949 µM, first compound 1 µM
[29] = second compound 0.0949 µM, first compound 3.16 µM
[30] = second compound 0.0949 µM, first compound 10 µM
[31] = second compound 0.3 µM, first compound 0.0316 µM
[32] = second compound 0.3 µM, first compound 0.1 µM
[33] = second compound 0.3 µM, first compound 0.316 µM
[34] = second compound 0.3 µM, first compound 1 µM
[35] = second compound 0.3 µM, first compound 3.16 µM
[36] = second compound 0.3 µM, first compound 10 µM
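Further: spheroids exposed to compounds for 7 days.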
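Wherever viability, T/C is given: 100% = DMSO vehicle control viability.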

IC50 (second compound 0.000949 µM): < 0.949 nM | IC50 (second compound 0.003 µM): < 0.949 nM | IC50 (second compound 0.00949 µM): < 0.949 nM | IC50 (second compound 0.03 µM): < 0.949 nM | IC50 (second compound 0.0949 µM): < 0.949 nM | IC50 (second compound 0.3 µM): < 0.949 nM
Compound: CCc1c2c(nc3ccc(O)cc13)-c1cc3c(c(=O)n1C2)COC(=O)[C@]3(O)CC + CCn1c(-c2cccnc2C(C)OC)c2c3cc(ccc31)N1CCOC(CC(NC(=O)C(C(C)C)N(C)C(=O)C3(F)CCN(C(=O)C#CC(C)(C)N(C)C)CC3)C(=O)N3CCCC(N3)C(=O)OCC(C)(C)C2)C1
viability, T/C (second compound 0.000949 µM, first compound 0.000949 µM): 28.2% | viability, T/C (second compound 0.000949 µM, first compound 0.003 µM): 22.7% | viability, T/C (second compound 0.000949 µM, first compound 0.00949 µM): 26.9% | viability, T/C (second compound 0.000949 µM, first compound 0.03 µM): 22% | viability, T/C (second compound 0.000949 µM, first compound 0.0949 µM): 19.6% | viability, T/C (second compound 0.000949 µM, first compound 0.3 µM): 15.6% | viability, T/C (second compound 0.003 µM, first compound 0.000949 µM): 24.8% | viability, T/C (second compound 0.003 µM, first compound 0.003 µM): 15.5% | viability, T/C (second compound 0.003 µM, first compound 0.00949 µM): 15.5% | viability, T/C (second compound 0.003 µM, first compound 0.03 µM): 14.1% | viability, T/C (second compound 0.003 µM, first compound 0.0949 µM): 15.5% | viability, T/C (second compound 0.003 µM, first compound 0.3 µM): 15.1% | viability, T/C (second compound 0.00949 µM, first compound 0.000949 µM): 22.1% | viability, T/C (second compound 0.00949 µM, first compound 0.003 µM): 17.7% | viability, T/C (second compound 0.00949 µM, first compound 0.00949 µM): 17.7% | viability, T/C (second compound 0.00949 µM, first compound 0.03 µM): 15% | viability, T/C (second compound 0.00949 µM, first compound 0.0949 µM): 14.6% | viability, T/C (second compound 0.00949 µM, first compound 0.3 µM): 12.3% | viability, T/C (second compound 0.03 µM, first compound 0.000949 µM): 19.5% | viability, T/C (second compound 0.03 µM, first compound 0.003 µM): 15.7% | viability, T/C (second compound 0.03 µM, first compound 0.00949 µM): 14.8% | viability, T/C (second compound 0.03 µM, first compound 0.03 µM): 13.9% | viability, T/C (second compound 0.03 µM, first compound 0.0949 µM): 13.2% | viability, T/C (second compound 0.03 µM, first compound 0.3 µM): 10.7% | viability, T/C (second compound 0.0949 µM, first compound 0.000949 µM): 15.9% | viability, T/C (second compound 0.0949 µM, first compound 0.003 µM): 13% | viability, T/C (second compound 0.0949 µM, first compound 0.00949 µM): 11.3% | viability, T/C (second compound 0.0949 µM, first compound 0.03 µM): 12.3% | viability, T/C (second compound 0.0949 µM, first compound 0.0949 µM): 11.1% | viability, T/C (second compound 0.0949 µM, first compound 0.3 µM): 9.62% | viability, T/C (second compound 0.3 µM, first compound 0.000949 µM): 13.9% | viability, T/C (second compound 0.3 µM, first compound 0.003 µM): 14.3% | viability, T/C (second compound 0.3 µM, first compound 0.00949 µM): 11.5% | viability, T/C (second compound 0.3 µM, first compound 0.03 µM): 10.7% | viability, T/C (second compound 0.3 µM, first compound 0.0949 µM): 10.3% | viability, T/C (second compound 0.3 µM, first compound 0.3 µM): 7%

IC50 (second compound 0.000949 µM): < 31.6 nM | IC50 (second compound 0.003 µM): < 31.6 nM | IC50 (second compound 0.00949 µM): < 31.6 nM | IC50 (second compound 0.03 µM): < 31.6 nM | IC50 (second compound 0.0949 µM): < 31.6 nM | IC50 (second compound 0.3 µM): < 31.6 nM
Compound: NC1c2ccccc2OC12CCN(c1cnc3c(N4CCCc5ncccc54)n[nH]c3n1)CC2 (stereo unspecified) + CCn1c(-c2cccnc2C(C)OC)c2c3cc(ccc31)N1CCOC(CC(NC(=O)C(C(C)C)N(C)C(=O)C3(F)CCN(C(=O)C#CC(C)(C)N(C)C)CC3)C(=O)N3CCCC(N3)C(=O)OCC(C)(C)C2)C1
viability, T/C [1]: 20.1% | viability, T/C [2]: 18.2% | viability, T/C [3]: 14.9% | viability, T/C [4]: 16.1% | viability, T/C [5]: 18.1% | viability, T/C [6]: 15.7% | viability, T/C [7]: 16% | viability, T/C [8]: 12.6% | viability, T/C [9]: 14.4% | viability, T/C [10]: 14.4% | viability, T/C [11]: 13.5% | viability, T/C [12]: 15.1% | viability, T/C [13]: 17.7% | viability, T/C [14]: 14.1% | viability, T/C [15]: 13.7% | viability, T/C [16]: 14.3% | viability, T/C [17]: 13.8% | viability, T/C [18]: 15.8% | viability, T/C [19]: 15.8% | viability, T/C [20]: 12.8% | viability, T/C [21]: 14.3% | viability, T/C [22]: 12.9% | viability, T/C [23]: 12.9% | viability, T/C [24]: 13.6% | viability, T/C [25]: 12.8% | viability, T/C [26]: 13.3% | viability, T/C [27]: 13.6% | viability, T/C [28]: 13% | viability, T/C [29]: 12.6% | viability, T/C [30]: 13.4% | viability, T/C [31]: 11.3% | viability, T/C [32]: 13.4% | viability, T/C [33]: 13.9% | viability, T/C [34]: 11.3% | viability, T/C [35]: 14.2% | viability, T/C [36]: 17.4%

IC50 (second compound 0.000949 µM): < 31.6 nM | IC50 (second compound 0.003 µM): < 31.6 nM | IC50 (second compound 0.00949 µM): < 31.6 nM | IC50 (second compound 0.03 µM): < 31.6 nM | IC50 (second compound 0.0949 µM): < 31.6 nM | IC50 (second compound 0.3 µM): < 31.6 nM
Compound: NC1c2ccccc2OC12CCN(c1cnc3c(N4CCCc5ncccc54)n[nH]c3n1)CC2 (stereo unspecified) + CCn1c(-c2cc(N3CCN(C)CC3)cnc2C(C)OC)c2c3cc(ccc31)-c1csc(n1)CC(NC(=O)C1CC1C)C(=O)N1CCCC(N1)C(=O)OCC(C)(C)C2
viability, T/C [1]: 20.1% | viability, T/C [2]: 18.4% | viability, T/C [3]: 14.1% | viability, T/C [4]: 16.4% | viability, T/C [5]: 18.4% | viability, T/C [6]: 18.5% | viability, T/C [7]: 19.2% | viability, T/C [8]: 15.6% | viability, T/C [9]: 14.8% | viability, T/C [10]: 16.3% | viability, T/C [11]: 17.4% | viability, T/C [12]: 19.8% | viability, T/C [13]: 16.1% | viability, T/C [14]: 15.2% | viability, T/C [15]: 14.6% | viability, T/C [16]: 14.7% | viability, T/C [17]: 18.5% | viability, T/C [18]: 16.5% | viability, T/C [19]: 17.2% | viability, T/C [20]: 16.4% | viability, T/C [21]: 16.7% | viability, T/C [22]: 16.8% | viability, T/C [23]: 18.2% | viability, T/C [24]: 17.9% | viability, T/C [25]: 17.5% | viability, T/C [26]: 18.4% | viability, T/C [27]: 16.9% | viability, T/C [28]: 19.2% | viability, T/C [29]: 18.5% | viability, T/C [30]: 18.9% | viability, T/C [31]: 18.6% | viability, T/C [32]: 19% | viability, T/C [33]: 20.5% | viability, T/C [34]: 19.2% | viability, T/C [35]: 19.8% | viability, T/C [36]: 22.7%
